Experiment: Half life value was determined
Assay type: ADME

Row | half-life [h] | SMILES
1 | 42 | CC(C)(NC(=O)[C@@H](N)Cc1ccc(OCc2ccccc2)cc1)C(=O)Nc1ccn(C2O[C@H](CO)[C@@H](O)[C@@H]2O)c(=O)n1 (stereo partly specified)
2 | 31 | CC(=O)O.CC(C)(NC(=O)[C@@H](N)Cc1ccc(OCc2ccccc2)cc1)C(=O)Nc1ccn(C2O[C@H](CO)[C@@H](O)[C@@H]2O)c(=O)n1 (stereo partly specified)
3 | 0.3 | CC(=O)[O-].CC(C)(NC(=O)[C@@H](N)Cc1ccc(OCc2ccccc2)cc1)C(=O)Nc1ccn(C2O[C@H](CO)[C@@H](O)[C@@H]2O)c(=O)n1.[Na+] (stereo partly specified)

The next lines start with the molecule.

Row | SMILES | half-life [h]
4 | CC(=O)[O-].CC(C)(NC(=O)CO)C(=O)Nc1ccn(C2O[C@H](CO)[C@@H](O)[C@@H]2O)c(=O)n1.[Na+] (stereo partly specified) | 1.4
5 | CC(C)(NC(=O)CO)C(=O)Nc1ccn(C2O[C@H](CO)[C@@H](O)[C@@H]2O)c(=O)n1 (stereo partly specified) | 360
6 | CC(=O)O.CC(C)(NC(=O)CO)C(=O)Nc1ccn(C2O[C@H](CO)[C@@H](O)[C@@H]2O)c(=O)n1 (stereo partly specified) | 860
